Measurements as given in US20220267390A1, “MPS MODIFIED PEPTIDES AND USE THEREOF” (The Regents of the University of California, priority 2019, published 2022).
Where a SMILES comes first, the peptide text is derived from it. [ ]: non-standard residue; d: D form.

Legend:
[1] = system: H1650 cells; type: cell-based
Protocol: IC50 (half maximal inhibitory concentration; μM) values in lung cancer cells. […] The residues marked in red/bold are D-isoforms of amino acids (SEQ ID NOS: 57, 48-54, 40-42 45 and 47 in order of appearance).
Molecular basis of MPS peptide and its potential for increasing nintedanib efficacy. […] A kinetic assay confirmed that this peptide binds PIP2 with a dissociation constant of 17.64 nM (FIG. 10B). As expected, a decrease of PIP3 pools in whole cell lysates of MPS-treated IPF fibroblasts was observed (FIG. 10C), supporting the notion that MPS peptide is able to inhibit AKT activation through trapping PIP2. In view of adverse effects of the current IPF therapeutic nintedanib^9, 10, there is an urgent clinical need to improve the efficacy of such treatment in IPF. Since the TGF-β receptor is not a direct target of nintedanib, targeting an element of TGF-β signaling in tandem with nintedanib administration circumvents the shortcomings of nintedanib monotherapy. […] Based on the above observations, it is assumed that TGF-β-directed phospho-MARCKS is a bypass mechanism of activating PI3K/AKT signaling (FIG. 11B); therefore, it seems reasonable that MARCKS inhibition by MPS treatment may improve nintedanib efficacy, permitting lower doses of nintedanib to be used. To this end, the possibility of a synergistic interaction between MPS and nintedanib in order to circumvent the shortcomings of nintedanib monotherapy was tested. […] Furthermore, the Chou and Talalay CI (combination index) method^25 was used to evaluate the therapeutic interactions between nintedanib and MPS peptide. […] Particularly, the values were lower than 1 at ED50, approximately 1 at ED75, and above 1 at ED90 (data not shown). Thus, the combination effect was dose-dependently correlated with the components, and therefore low dose nintedanib in combination with low dose of MPS presents a synergistic effect on cell proliferation. […] On the basis of the sequences of MPS peptide, the rearrangement of PIP2-binding sites in this peptide were designed and synthesized with the intention of enhancing the efficacy and stability of the MPS peptide. FIG. 13 lists the sequences of various MPS derivatives. In light of the cleavage sites of various proteases and PIP2 binding motifs, Applicant replaced some L-isoform amino acids with D-isoform and these peptides were named as MPS-12042 and MPS-22026. To further validate the efficacy of the above MPS derivatives, Applicant performed a dose-course analysis of H1650 cells undergoing each MPS derivative treatment.

[2] = system: IPF fibroblast cells; experiment: cells; type: cell-based, human
Protocol: (§1) FIG. 14: Comparison of MPS-12042 (SEQ ID NO: 45) versus know tyrosine kinase inhibitor (TKLs) on the treatment of IPF fibroblast cells. Both normal and IPF lung fibroblast cells were treated with various drugs. After 72 hours, cells were subjected to MTT assays and IC50 for each drug was determined.
Human primary fibroblast cells were obtained from airway tissues provided from the UC Davis Medical Hospital (Sacramento, Calif.) with consent. The protocol for human tissue procurement and usage were periodically reviewed and approved by the University Human Subject Research Review Committee. Primary fibroblast cell lines, IPF-1 and IPF-2 cells, were established from IPF patients. Cells were obtained from lung biopsies and the diagnosis of IPF was supported by patient history, physical examination, pulmonary function tests, and typical high-resolution chest computed tomography findings of IPF. […] All patients fulfilled the criteria for the diagnosis of IPF as established by the American Thoracic Society and European Respiratory Society. Non-fibrotic primary control adult human lung fibroblast lines, Normal-1 and Normal-2 cells were used. These lines were established from normal lung tissue or histologically normal lung tissue adjacent to carcinoid tumor. The IPF cell line, LL97A, was purchased from the American Type Culture Collection (ATCC) (Manassas, Va.). Lung fibroblast lines were cultured in high-glucose DMEM or RPMI-1640 medium with 10% fetal bovine serum and 1% penicillin-streptomycin at 37° C. in a humidified atmosphere of 5% CO2. Fibroblasts were used between passages 4 and 8. Cells were characterized as fibroblasts as described^26.
Cells were seeded onto 96-well plates at a density of 5-10×10^3 cells per well and cultured for the indicated treatment. Cell proliferation was evaluated using a MTS assay kit (Promega, Madison, Wis.). Twenty microliters of the combined MTS/PMS solution was added into each well, incubated for 3 hours at 37° C., and the absorbance was measured at 490 nm by using an ELISA reader. For Trypan blue test, cells were plated on 12-well plates and treated with the indicated chemotherapeutic agents. After 72 hours, both attached and detached cells were collected and then stained with 0.2% trypan blue (0.1% final concentration), and the number of trypan blue-positive and -negative cells was counted using a haemocytometer under low-power microscopy. For colony-forming assays, 200 cells were seeded in each well of six-well plates. IPF-1 or IPF-2 primary cells were treated with peptides at the indicated concentrations for 10 days. Colonies were stained using 0.001% crystal violet and the number of colonies with a diameter greater than 0.5 mm was counted under an inverted microscope.

[3] = system: bleomycin-induced pulmonary fibrosis; experiment: Bleomycin-induced pulmonary fibrosis; type: in vivo, C57BL/6J mice; settings: 7 mg/kg i.p. every two days, against nintedanib (28 mg/kg) and MPS peptide (28 mg/kg)
Protocol: FIGS. 20A and 20B show suppressive effects of MPS peptide on pulmonary fibrosis in vivo. C57BL/6 mice were intraperitoneally given either PBS, nintedanib (28 mg/kg), MPS peptide (28 mg/kg) or MPS-12042 (7 mg/kg) at the dosage of every two days after 9 days of intratracheal exposure with one shot of saline or bleomycin (33 μg in […] of saline, n=5). (FIG. 20A) Representative Masson trichrome and immunohistochemical staining of phospho-MARCKS (Ser159/163) and phospho-AKT (Ser473) (n=6). (FIG. 20B) Hydroxyproline level in the left lung of mice as described above was determined by a hydroxyproline ELISA assay (mean±SD, *p<0.05).
MPS peptide potentially serves as an antifibrotic agent in bleomycin-induced pulmonary fibrosis. Bleomycin remains the standard agent for induction of experimental pulmonary fibrosis in animals^23. Thus, 8-week-old female C57BL/6J mice received saline or bleomycin intratracheally (33 μg in […] of saline) as previously described^23. Lung specimens from bleomycin- or saline-treated mice were collected and subjected to immunofluorescence staining. […] Next, lung fibroblast cells isolated from saline- or bleomycin-treated mice (two mice fibroblast cell lines were gifts from Dr. Sem H. Phan, University of Michigan School of Medicine, MI) were incubated with either 100 μM control or MPS peptide for 48 hours. […]

[4] = system: normal fibroblasts; experiment: Normal lung fibroblast proliferation (MTS/MTT assay); type: cell-based, human; settings: 1 μM
Protocol: as §1
Human primary fibroblast cells were obtained from airway tissues provided from the UC Davis Medical Hospital (Sacramento, Calif.) with consent. The protocol for human tissue procurement and usage were periodically reviewed and approved by the University Human Subject Research Review Committee. Primary fibroblast cell lines, IPF-1 and IPF-2 cells, were established from IPF patients. […]
Cells were seeded onto 96-well plates at a density of 5-10×10^3 cells per well and cultured for the indicated treatment. Cell proliferation was evaluated using a MTS assay kit (Promega, Madison, Wis.). Twenty microliters of the combined MTS/PMS solution was added into each well, incubated for 3 hours at 37° C., and the absorbance was measured at 490 nm by using an ELISA reader. […] After 72 hours, both attached and detached cells were collected and then stained with 0.2% trypan blue (0.1% final concentration), and the number of trypan blue-positive and -negative cells was counted using a haemocytometer under low-power microscopy. […]

CC(C)C[C@@H](NC(=O)[C@@H](CCCCN)NC(=O)[C@@H](Cc1ccccc1)NC(=O)[C@H](C)NC(=O)[C@H](CCCCN)NC(=O)[C@@H](CCCCN)NC(=O)[C@@H](Cc1ccccc1)NC(=O)[C@H](C)NC(=O)[C@@H](Cc1ccccc1)NC(=O)[C@@H](CCCNC(=N)N)NC(=O)[C@H](CCCCN)NC(=O)[C@H](CCCCN)NC(=O)[C@H](CCCCN)NC(=O)[C@H](CCCCN)NC(=O)[C@@H](N)CCCCN)C(=O)N[C@@H](C)C(=O)NCC(=O)N[C@H](Cc1ccccc1)C(=O)N[C@H](C)C(=O)N[C@H](Cc1ccccc1)C(=O)N[C@H](CCCCN)C(=O)N[C@@H](CCCCN)C(=O)N[C@@H](CC(N)=O)C(=O)N[C@H](CCCCN)C(=O)N[C@@H](CCCCN)C(=O)O [MPS-12042] (H-KKKKK[dR][dF]A[dF][dK]KA[dF][dK][dL]AG[dF][dA][dF][dK]KN[dK]K-OH; N-terminus and C-terminus assumed)
IC50 [1]: 6 µM
decreased cell proliferation ([2]; 1 μM, IPF fibroblast): 50%
IC50 ([2]; 72 h): 1 to 1.5 µM
attenuating phospho-MARCKS and phospho-AKT, reducing overall fibrosis and extracellular matrix deposition in mouse lungs [3]: superior efficacy
decreased cell proliferation [4]: not in normal fibroblasts
